The target of one assay is T1, M1 muscarinic receptor (Homo sapiens, UniProt P11229).
T1 construct: expressed in transfected cells; host or cells: CHO (M1-CHO)
T1 sequence (P11229 1-460): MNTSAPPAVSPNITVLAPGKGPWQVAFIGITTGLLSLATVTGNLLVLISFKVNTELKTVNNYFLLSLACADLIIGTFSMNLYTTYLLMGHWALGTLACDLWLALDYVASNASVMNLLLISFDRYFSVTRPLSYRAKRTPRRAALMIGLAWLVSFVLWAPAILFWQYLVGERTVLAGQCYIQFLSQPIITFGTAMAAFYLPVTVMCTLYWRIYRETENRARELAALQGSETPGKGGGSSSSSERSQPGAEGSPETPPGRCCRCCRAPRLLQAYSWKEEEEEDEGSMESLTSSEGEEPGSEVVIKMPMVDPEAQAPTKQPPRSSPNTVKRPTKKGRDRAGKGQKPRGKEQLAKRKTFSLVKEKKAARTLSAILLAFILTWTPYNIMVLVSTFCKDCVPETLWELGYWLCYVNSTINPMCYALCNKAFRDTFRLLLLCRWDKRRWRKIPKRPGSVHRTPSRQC
In words: Functional mobilization of intracellular calcium (FLIPR), M1-CHO cells. It is filed as cell-based. The conditions noted are these: for Emax: 100% efficacy is the maximum response obtained using Carbachol as a control; for M1 Activity: M1-CHO cells, FLIPR calcium mobilization. The essentials: (§1)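 Calcium flux recorded 60 s (ex 488, em 540 nm) in dye-loaded M1- or M4-CHO cells in pH 7.4 buffer with 1 mM probenecid. Inhibition measured against carbachol EC80 after 15 min compound pre-incubation or co-addition; agonism measured by compound addition alone. Final DMSO 0.5%.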
On the technique in general: A change in cytosolic calcium serves as a functional read-out for many receptors and channels.

The target of another assay is T2, M4 muscarinic receptor (Homo sapiens, UniProt P08173).
T2 construct: expressed in transfected cells; host or cells: CHO (M4-CHO)
T2 sequence (P08173 1-479): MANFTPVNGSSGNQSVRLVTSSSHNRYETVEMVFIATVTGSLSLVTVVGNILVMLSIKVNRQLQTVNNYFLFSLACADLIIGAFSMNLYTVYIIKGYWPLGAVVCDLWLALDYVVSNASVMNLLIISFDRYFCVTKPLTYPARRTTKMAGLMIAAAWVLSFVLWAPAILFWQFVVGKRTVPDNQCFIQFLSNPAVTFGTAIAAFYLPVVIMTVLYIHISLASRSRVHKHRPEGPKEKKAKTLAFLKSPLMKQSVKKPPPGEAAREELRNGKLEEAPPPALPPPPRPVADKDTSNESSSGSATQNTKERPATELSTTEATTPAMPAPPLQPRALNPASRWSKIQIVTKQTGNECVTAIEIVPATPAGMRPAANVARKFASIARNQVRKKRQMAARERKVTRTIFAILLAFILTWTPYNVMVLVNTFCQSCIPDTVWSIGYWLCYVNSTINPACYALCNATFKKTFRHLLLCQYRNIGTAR
In words: Functional mobilization of intracellular calcium (FLIPR), M4-CHO cells. The conditions noted are these: for Emax: 100% efficacy is the maximum response obtained using Carbachol as a control; for M4 Activity: M4-CHO cells, FLIPR calcium mobilization. It counts as cell-based. The essentials: as §1

Molecules are shown by their SMILES. Structures can show the parent of a compound that is named as a salt. Some results are limits rather than exact numbers.

A word on the Emax: it is the greatest response seen or fitted, relative to the assay's reference. As to `CC(=O)N1Cc2ccccc2C2(CCN(Cc3nccs3)CC2)C1` [compound 98], at M1 muscarinic receptor, the Emax is less than 25% and the “M1 Activity” value is “+ (activity was measured to be greater than 5.0 μM)”. Besides, at M4 muscarinic receptor, the Emax was less than 25% and the “M4 Activity” value is given as “+ (activity was measured to be greater than 5.0 μM)”.
As for `CCCOC(=O)N1Cc2ccccc2C2(CCN(C3CC4CCC(C3)N4C(=O)OCC)CC2)C1` (stereo not drawn) [compound 99], on M1 muscarinic receptor, the Emax is 25 to 100% and the “M1 Activity” value is given as “+++ (activity was measured to be less than 1.0 μM)”. For the same compound, on M4 muscarinic receptor, the Emax lay within 25 to 100% and the “M4 Activity” value is “+++ (activity was measured to be less than 1.0 μM)”.
Turning to `CCCOc1ccc(CN2CCC3(CC2)CN(C(C)=O)Cc2ccccc23)cc1` [compound 100], on M1 muscarinic receptor, the maximal response (Emax) is less than 25% and the “M1 Activity” value is given as “+ (activity was measured to be greater than 5.0 μM)”. For the same compound, at M4 muscarinic receptor, the Emax was less than 25% and the “M4 Activity” value is reported as “+ (activity was measured to be greater than 5.0 μM)”.
Turning to `CC(=O)N1Cc2ccccc2C2(CCN(Cc3cc(C)c(C)o3)CC2)C1` [compound 101], at M1 muscarinic receptor, the Emax was less than 25% and the “M1 Activity” value is listed as “+ (activity was measured to be greater than 5.0 μM)”. At M4 muscarinic receptor, the Emax is less than 25% and the “M4 Activity” value is given as “+ (activity was measured to be greater than 5.0 μM)”.
Turning to `O=C(C1CC1)N1Cc2ccccc2C2(CCN(C3CC4CCC(C3)N4C(=O)OC3CCC3)CC2)C1` (stereo not drawn) [compound 102], on M1 muscarinic receptor, the Emax was in the range of 25 to 100% and the “M1 Activity” value is “+++ (activity was measured to be less than 1.0 μM)”. At M4 muscarinic receptor, the Emax is 25 to 100% and the “M4 Activity” value is recorded as “+++ (activity was measured to be less than 1.0 μM)”.
As to `CCOC(=O)N1CCC(C)(CN2CCC3(CC2)CN(C(C)=O)Cc2ccccc23)CC1` [compound 103, ethyl 4-((2-acetyl-2,3-dihydro-1H-spiro[isoquinoline-4,4′-piperidine]-1′-yl)methyl)-4-methylpiperidine-1-carboxylate hydrochloride], at M1 muscarinic receptor, the Emax lay within 25 to 100% and the “M1 Activity” value is given as “+++ (activity was measured to be less than 1.0 μM)”. Also, at M4 muscarinic receptor, the maximal effect (Emax) was in the range of 25 to 100% and the “M4 Activity” value was “+++ (activity was measured to be less than 1.0 μM)”.
With `CCOC(=O)N1CCC(N2CCC3(CC2)CN(C(=O)NC(C)C)Cc2ccccc23)CC1` [compound 104], at M1 muscarinic receptor, the maximal effect (Emax) lay within 25 to 100% and the “M1 Activity” value is on record as “+++ (activity was measured to be less than 1.0 μM)”. Besides, at M4 muscarinic receptor, the Emax was in the range of 25 to 100% and the “M4 Activity” value was “+++ (activity was measured to be less than 1.0 μM)”.
In the case of `COC(=O)c1cccc(CN2CCC3(CC2)CN(C(C)=O)Cc2ccccc23)c1` [compound 105], on M1 muscarinic receptor, the maximum response (Emax) was less than 25% and the “M1 Activity” value is given as “+ (activity was measured to be greater than 5.0 μM)”. For the same compound, on M4 muscarinic receptor, the Emax was less than 25% and the “M4 Activity” value is given as “+ (activity was measured to be greater than 5.0 μM)”.
In the case of `CCCCNC(=O)N1Cc2ccccc2C2(CCN(C3CCN(C(=O)OCC)CC3)CC2)C1` [compound 106], at M1 muscarinic receptor, the Emax lay in the range of 25 to 100% and the “M1 Activity” value is “+++ (activity was measured to be less than 1.0 μM)”. For the same compound, on M4 muscarinic receptor, the Emax was in the range of 25 to 100% and the “M4 Activity” value was “+++ (activity was measured to be less than 1.0 μM)”.
With `COc1ccc(CN2CCC3(CC2)CN(C(C)=O)Cc2ccccc23)cc1F` [compound 107], at M1 muscarinic receptor, the Emax was less than 25% and the “M1 Activity” value is given as “+ (activity was measured to be greater than 5.0 μM)”. Further, at M4 muscarinic receptor, the Emax is less than 25% and the “M4 Activity” value is “+ (activity was measured to be greater than 5.0 μM)”.
For `CCOC(=O)N1CCC(N2CCC3(CC2)CN(C(=O)N2CCCC2)Cc2ccccc23)CC1` [compound 110], at M1 muscarinic receptor, the Emax fell in the range of 25 to 100% and the “M1 Activity” value was “+++ (activity was measured to be less than 1.0 μM)”. Also, at M4 muscarinic receptor, the maximal effect (Emax) was in the range of 25 to 100% and the “M4 Activity” value is reported as “+++ (activity was measured to be less than 1.0 μM)”.
Turning to `CCOC(=O)N1C2CCC(N3CCC4(CC3)CN(C(=O)OC3CCC3)Cc3ccccc34)CC1CC2` (stereo not drawn) [compound 112], on M1 muscarinic receptor, the Emax lay in the range of 25 to 100% and the “M1 Activity” value is recorded as “+++ (activity was measured to be less than 1.0 μM)”. At M4 muscarinic receptor, the Emax lay within 25 to 100% and the “M4 Activity” value is recorded as “+++ (activity was measured to be less than 1.0 μM)”.
With `CC(=O)N1Cc2ccccc2C2(CCN(Cc3ccc(F)cc3)CC2)C1` [compound 115], on M1 muscarinic receptor, the maximal effect (Emax) was less than 25% and the “M1 Activity” value is reported as “+ (activity was measured to be greater than 5.0 μM)”. On M4 muscarinic receptor, the maximal effect (Emax) was less than 25% and the “M4 Activity” value is on record as “+ (activity was measured to be greater than 5.0 μM)”.
For `CC(=O)N1Cc2ccccc2C2(CCN(Cc3ccc4c(c3)CCO4)CC2)C1` [compound 116], at M1 muscarinic receptor, the Emax is less than 25% and the “M1 Activity” value is listed as “+ (activity was measured to be greater than 5.0 μM)”. For the same compound, on M4 muscarinic receptor, the maximal response (Emax) is less than 25% and the “M4 Activity” value is “+ (activity was measured to be greater than 5.0 μM)”.
Take `COC(=O)c1ccccc1CN1CCC2(CC1)CN(C(C)=O)Cc1ccccc12` [compound 118]: at M1 muscarinic receptor, the Emax was less than 25% and the “M1 Activity” value is reported as “+ (activity was measured to be greater than 5.0 μM)”. Moreover, at M4 muscarinic receptor, the Emax was less than 25% and the “M4 Activity” value is recorded as “+ (activity was measured to be greater than 5.0 μM)”.
Regarding `CCCS(=O)(=O)N1Cc2ccccc2C2(CCN(C3CC4CCC(C3)N4C(=O)OC3CCC3)CC2)C1` (stereo not drawn) [compound 119], on M1 muscarinic receptor, the maximal effect (Emax) lay within 25 to 100% and the “M1 Activity” value was “+++ (activity was measured to be less than 1.0 μM)”. Besides, at M4 muscarinic receptor, the maximum response (Emax) was 25 to 100% and the “M4 Activity” value is listed as “+++ (activity was measured to be less than 1.0 μM)”.
Take `CCOC(=O)N1CCC(N2CCC3(CC2)CN(C(=O)OCC)Cc2ccccc23)CC1` [compound 120]: on M1 muscarinic receptor, the maximal response (Emax) lay within 25 to 100% and the “M1 Activity” value was “+++ (activity was measured to be less than 1.0 μM)”. For the same compound, at M4 muscarinic receptor, the Emax lay in the range of 25 to 100% and the “M4 Activity” value is listed as “+++ (activity was measured to be less than 1.0 μM)”.
As to `COc1cccc(CN2CCC3(CC2)CN(C(C)=O)Cc2ccccc23)c1` [compound 121], at M1 muscarinic receptor, the maximal effect (Emax) is less than 25% and the “M1 Activity” value is given as “+ (activity was measured to be greater than 5.0 μM)”. Besides, on M4 muscarinic receptor, the Emax is less than 25% and the “M4 Activity” value is reported as “+ (activity was measured to be greater than 5.0 μM)”.
With `CCCCC(=O)N1Cc2ccccc2C2(CCN(C3CCN(C(=O)OCC)CC3)CC2)C1` [compound 122], at M1 muscarinic receptor, the Emax lay within 25 to 100% and the “M1 Activity” value is “+++ (activity was measured to be less than 1.0 μM)”. Besides, at M4 muscarinic receptor, the maximal effect (Emax) lay within 25 to 100% and the “M4 Activity” value was “+++ (activity was measured to be less than 1.0 μM)”.
On to `CCOC(=O)N1CCC(N2CCC3(CC2)CN(C2CCCCC2C)Cc2ccccc23)CC1` (stereo not drawn) [compound 123], for which, on M1 muscarinic receptor, the Emax is 25 to 100% and the “M1 Activity” value was “+++ (activity was measured to be less than 1.0 μM)”. For the same compound, at M4 muscarinic receptor, the maximum response (Emax) was in the range of 25 to 100% and the “M4 Activity” value is “+++ (activity was measured to be less than 1.0 μM)”.
Regarding `CCOC(=O)N1CCC(CN2CCC3(CC2)CN(C(=O)c2cccs2)Cc2ccccc23)CC1` [compound 124], on M1 muscarinic receptor, the Emax is 25 to 100% and the “M1 Activity” value is “+++ (activity was measured to be less than 1.0 μM)”. Further, on M4 muscarinic receptor, the maximal response (Emax) lay within 25 to 100% and the “M4 Activity” value was “+++ (activity was measured to be less than 1.0 μM)”.
Regarding `CCCOC(=O)N1C2CCC1CC(N1CCC3(CC1)CN(S(=O)(=O)N(C)C)Cc1ccccc13)C2` (stereo not drawn) [compound 125], at M1 muscarinic receptor, the maximum response (Emax) was 25 to 100% and the “M1 Activity” value is listed as “+++ (activity was measured to be less than 1.0 μM)”. Further, at M4 muscarinic receptor, the Emax lay within 25 to 100% and the “M4 Activity” value is given as “+++ (activity was measured to be less than 1.0 μM)”.
With `CCOC(=O)N1C2CCC1CC(N1CCC3(CC1)CN(C(=O)CC(F)(F)F)Cc1ccccc13)C2` (stereo not drawn) [compound 126], at M1 muscarinic receptor, the maximum response (Emax) was 25 to 100% and the “M1 Activity” value is “+++ (activity was measured to be less than 1.0 μM)”. On M4 muscarinic receptor, the Emax was in the range of 25 to 100% and the “M4 Activity” value is given as “+++ (activity was measured to be less than 1.0 μM)”.
As for `CCOC(=O)N1CCC(CN2CCC3(CC2)CN(C(=O)NC2CCCC2)Cc2ccccc23)CC1` [compound 127], at M1 muscarinic receptor, the Emax was 25 to 100% and the “M1 Activity” value is “+++ (activity was measured to be less than 1.0 μM)”. Also, at M4 muscarinic receptor, the Emax is 25 to 100% and the “M4 Activity” value is reported as “+++ (activity was measured to be less than 1.0 μM)”.

Source of the values: patent US7863449B2, “Modulators of muscarinic receptors” (Vertex Pharmaceuticals Incorporated, priority 2004, dated 2011).
